# In US20070015823A1, “Ambruticin VS compounds” (priority 2004, published 2007):
# Experiments:
# A. flavus ATCC 204304 = experiment: Broth microdilution antifungal susceptibility, NCCLS M38-A; assay type: cell-based, Aspergillus flavus; details: minimal concentration inhibiting >95% growth; average of at least two assays (except I-l and I-x)
# A. fumigatus ATCC 204305 = experiment: as above; assay type: cell-based, Aspergillus fumigatus; details: minimal concentration inhibiting >95% growth; average of at least two assays (except I-l and I-x)
# Blastomyces dermatitidis = experiment: as above; assay type: cell-based
# Histoplasma capsulatum = assay type: cell-based
# [1] = test system: Trichophyton mentagrophytes; experiment: Dermatophyte broth microdilution, NCCLS M38-A; assay type: cell-based
# Microsporum gypseum = experiment: Dermatophyte broth microdilution, NCCLS M38-A; assay type: cell-based
# Trichophyton rubrum = experiment: Dermatophyte broth microdilution, NCCLS M38-A; assay type: cell-based
# Microsporum canis = experiment: Dermatophyte broth microdilution, NCCLS M38-A; assay type: cell-based
# Cryptococcus neoformans = experiment: Broth microdilution antifungal susceptibility, NCCLS M38-A; details: 50% growth inhibition, range = minimum and maximum of multiple assays
Compound,MIC0 A. flavus ATCC 204304 (A. flavus ATCC 204304) [µg/mL],MIC0 A. fumigatus ATCC 204305 (A. fumigatus ATCC 204305) [µg/mL],other results
"CC[C@H]1O[C@@H](/C(C)=C/[C@H](C)/C=C/[C@H]2[C@@H](C)[C@@H]2/C=C/[C@@H]2O[C@H](CCO)C[C@H](N(C)C(C)C)[C@H]2O)CC=C1C [I-oo, (5S,6R)-5-(N-isoproyl-methylamino)polyangi-1,6-diol]",2,32,MIC B. dermatitidis Gu (Blastomyces dermatitidis): 0.39 µg/mL; MIC B. dermatitidis Kr (Blastomyces dermatitidis): >12.5 µg/mL; MIC B. dermatitidis V (Blastomyces dermatitidis): >12.5 µg/mL; MIC H. capsulatum G217B (Histoplasma capsulatum): <0.19 µg/mL; MIC H. capsulatum GS20 (Histoplasma capsulatum): <0.19 µg/mL
"CC[C@H]1O[C@@H](/C(C)=C/[C@H](C)/C=C/[C@H]2[C@@H](C)[C@@H]2/C=C/[C@@H]2O[C@H](CC(=O)O)C[C@H](N(C)Cc3ncc[nH]3)[C@H]2O)CC=C1C [I-y, (5S,6R)-5-(N-(2-imidazolyl)methyl-methylamino)-6-hydroxypolyangioic acid]",9,8.5,MIC B. dermatitidis Gu (Blastomyces dermatitidis): 3.13 µg/mL; MIC B. dermatitidis Kr (Blastomyces dermatitidis): >12.5 µg/mL; MIC B. dermatitidis V (Blastomyces dermatitidis): >12.5 µg/mL; MIC H. capsulatum G217B (Histoplasma capsulatum): <0.19 µg/mL; MIC H. capsulatum GS20 (Histoplasma capsulatum): <0.19 µg/mL; MIC0 Tm [1]: 4.18 µg/mL; MIC0 Mg (Microsporum gypseum): 2.51 µg/mL; MIC0 Tr (Trichophyton rubrum): 3.17 µg/mL; MIC0 Mc (Microsporum canis): 4 µg/mL; MIC C. neoformans 97-14 (Cryptococcus neoformans; strain 97-14): 0.5 µg/mL; MIC C. neoformans 11239 (Cryptococcus neoformans; strain 11239): 1 µg/mL; MIC C. neoformans 11240 (Cryptococcus neoformans; strain 11240): 1 µg/mL
"CC[C@H]1O[C@@H](/C(C)=C/C/C=C/[C@H]2[C@@H](C)[C@@H]2/C=C/[C@@H]2O[C@H](CC(=O)O)C[C@H](N(C)C)[C@H]2O)CC=C1C [II-a, (5S,6R)-5-dimethylamino-6-hydroxy-15-desmethylpolyangioic acid]",0.92,0.6,
"CC[C@H]1O[C@@H](/C(C)=C/C/C=C/[C@H]2[C@@H](C)[C@@H]2/C=C/[C@@H]2O[C@H](CCO)C[C@H](N(C)C)[C@H]2O)CC=C1C [II-b, (5S,6R)-5-dimethylamino-15-desmethylpolyangi-1,6-diol]",8,8,
"CC1=CC[C@H](/C(C)=C/[C@H](C)/C=C/[C@H]2[C@@H](C)[C@@H]2/C=C/[C@@H]2O[C@H](CC(=O)O)C[C@H](N(C)C)[C@H]2O)O[C@@H]1C [III-a, 24-norambruticin VS-3]",1.6,0.71,
CC[C@H]1O[C@@H](/C(C)=C/[C@H](C)/C=C/[C@H]2[C@@H](C)[C@@H]2/C=C/[C@@H]2O[C@H](CCO)C[C@H](N(C)C)[C@H]2O)CCC1C (stereo partly drawn) [IV-c],2,2,
CC[C@H]1O[C@@H](/C(C)=C/[C@H](C)/C=C/[C@H]2[C@@H](C)[C@@H]2/C=C/[C@@H]2O[C@H](CC(=O)O)C[C@H](NC(C)C)[C@H]2O)CCC1C (stereo partly drawn) [IV-d],0.88,2.5,
"(5S,6R,16R,17R)-5-amino-6-hydroxy-16,17-epxoy-16,17-dihydropolyangioic acid [V-c]",16,8,
"(5S,6R,16S,17S)-5-amino-6-hydroxy-16,17-epxoy-16,17-dihydropolyangioic acid [V-d]",>32,>32,
"methyl (5S,6R,16R,17R)-5-tert-butoxycarbonylamino-6-hydroxy-16,17-epxoy-16,17-dihydropolyangiate [V-a]",>32,>32,
"methyl (5S,6R,16S,17S)-5-tert-butoxycarbonylamino-6-hydroxy-16,17-epxoy-16,17-dihydropolyangiate [V-b]",>32,>32,
